Test results as given in BigSolDB 2.1.

O=C1CCC(c2ccccc2)=NN1
solubility (mole fraction)
Details | in DMSO | in ethanol | in ethyl acetate | in ethylene glycol | in isopropanol | in n-butanol | in propylene glycol | in sec-butanol | in transcutol | in water
293.2 K | 0.637 | 0.00407 | 0.00878 | 0.0074 | 0.0031 | 0.00474 | 0.00654 | 0.00512 | 0.423 | 7.24e-07
298.2 K | 0.647 | 0.00466 | 0.00994 | 0.00836 | 0.00378 | 0.0053 | 0.00732 | 0.00555 | 0.451 | 9.18e-07
303.2 K | 0.658 | 0.00529 | 0.0111 | 0.00921 | 0.0046 | 0.00601 | 0.00846 | 0.00618 | 0.476 | 1.13e-06
308.2 K | 0.668 | 0.00607 | 0.0128 | 0.0101 | 0.00555 | 0.0067 | 0.00951 | 0.00687 | 0.502 | 1.37e-06
313.2 K | 0.677 | 0.00696 | 0.0145 | 0.0109 | 0.00651 | 0.00768 | 0.0103 | 0.00778 | 0.524 | 1.61e-06

Details | solubility (mole fraction)
in PEG-400, 293.2 K | 0.0585
in PEG-400, 298.2 K | 0.0646
in PEG-400, 303.2 K | 0.0709
in PEG-400, 308.2 K | 0.078
in PEG-400, 313.2 K | 0.0847
